Reference: patent US8748395B2, “Cell-permeable peptide inhibitors of the JNK signal transduction pathway” (Xigen Inflammation Ltd., priority 2006, dated 2014)

What was measured:
JNK = settings: JBDs; cited from earlier work
WiDr cells = assay: Irradiation (30 Gy) induced apoptosis of WiDr cells; type: cell-based, human; settings: 1 μM added 30 minutes before 30 Gy, analyzed 48 hours later
Description: JNK is also activated by ionizing radiation. To determine whether inventive TAT-IB(s) peptides would provide protection against radiation-induced JNK damage, “WiDr” cells were irradiated (30 Gy) in presence or absence of D-TAT, inventive L-TAT-IB1(s) or inventive D-TAT-IB1(s) peptides (1 μM added 30 minutes before irradiation). Control cells (CTRL) were not irradiated. Cells were analyzed 48 hours later by means of PI and Hoechst 3342 staining, as described above. N=3, SEM are indicated.

AP-1 DNA binding complex = assay: Gel retardation assay with AP-1 probe, HeLa cell nuclear extracts, TNF-α; type: cell-based; settings: peptide added 30 minutes before TNF-α 5 ng/ml
[1] = tested on: JNKs activated by stressful stimuli; assay: c-Jun phosphorylation by activated JNKs pulled down with GST-Jun from UV-irradiated HeLa or IL-1β treated βTC-3 cells; type: biochemical; settings: 25 μM peptide, 20 minutes
Description: The effects of the L-TAT or inventive L-TAT-IB1(s) peptides on JNKs activated by stressful stimuli were evaluated using GST-Jun to pull down JNKs from UV-light irradiated HeLa cells or IL-1β treated PTC cells. PTC cells were cultured as described above. HeLa cells were cultured in DMEM medium supplemented with 10% Fetal Calf Serum, 100 μg/mL Streptomycin, 100 units/ml Penicillin and 2 mM Glutamine. One hour prior to being used for cell extract preparation, PTC cells were activated with IL-1β as described above, whereas HeLa cells were activated by UV-light (20 J/m^2). Cell extracts were prepared from control, UV-light irradiated HeLa cells and IL-1β treated βTC-3 cells by scraping the cell cultures in lysis buffer (20 mM Tris-acetate, 1 mM EGTA, 1% Triton X-100, 10 mM p-nitrophenyl-phosphate, 5 mM sodium pyrophosphate, 10 mMP-glycerophosphate, 1 mM dithiothreitol). Debris was removed by centrifugation for five minutes at 15,000 rpm in an SS-34 Beckman rotor. One-hundred μg extracts were incubated for one hour at room temperature with one μg GST-jun (amino acids 1-89) and 10 μL of glutathione-agarose beads (Sigma). Following four washes with the scraping buffer, the beads were resuspended in the same buffer supplemented with L-TAT or inventive L-TAT-IB1(s) peptides (25 μM) for 20 minutes. […]

[2] = tested on: activation of c-Jun by JNK; assay: GAL4 reporter system (GAL-Jun, 5xGAL-LUC) in HeLa cells with MKK4/MKK7 co-transfection; type: cell-based
Source text: To determine whether the inventive cell-permeable peptides could block JNK signaling in vivo, we used a heterologous GAL4 system. HeLa cells, cultured as described above, were co-transfected with the 5×GAL-LUC reporter vector together with the GAL-Jun expression construct (Stratagene) comprising the activation domain of c-jun (amino acids 1-89) linked to the GAL4 DNA-binding domain. Activation of JNK was achieved by the co-transfection of vectors expressing the directly upstream kinases MKK4 and MKK7 (see Whitmarsh et al., Science 285: 1573 (1999)). Briefly, 3×10^5 cells were transfected with the plasmids in 3.5-cm dishes using DOTAP (Boehringer Mannheim) following instructions from the manufacturer. For experiments involving GAL-Jun, 20 ng of the plasmid was transfected with 1 μg of the reporter plasmid pFR-Luc (Stratagene) and 0.5 μg of either MKK4 or MKK7 expressing plasmids. Three hours following transfection, cell media were changed and TAT and TAT-IB1(s) peptides (1 μM) were added. The luciferase activities were measured 16 hours later using the “Dual Reporter System” from PROMEGA® after normalization to protein content. […] Because HeLa cells express JNK1 and JNK2 isoforms but not JNK3, we transfected cells with JNK3.

[3] = tested on: recombinant JNK1, JNK2 and JNK3; assay: Solid phase kinase assay: JNK-mediated phosphorylation of c-Jun, ATF2 and Elk1; type: biochemical
Description: (§1) The effects of the peptides on JNKs-mediated phosphorylation of their target transcription factors were investigated in vitro. Recombinant and non activated JNK1, JNK2 and JNK3 were produced using a TRANSCRIPTION AND TRANSLATION rabbit reticulocyte lysate kit (PROMEGA®) and used in solid phase kinase assays with c-jun, ATF2 and Elk1, either alone or fused to glutathione-S-transferase (GST), as substrates. Dose response studies were performed wherein inventive L-TAT or L-TAT-IB1(s) peptides (0-25 μM) were mixed with the recombinant JNK1, JNK2, or JNK3 kinases in reaction buffer (20 mM Tris-acetate, 1 mM EGTA, 10 mM p-nitrophenyl-phosphate (pNPP), 5 mM sodium pyrophosphate, 10 mM p-glycerophosphate, 1 mM dithiothreitol) for 20 minutes. The kinase reactions were then initiated by the addition of 10 mM MgCl2 and 5 pCi^33P-γ-dATP and 1 μg of either GST-Jun (aa 1-89), GST-AFT2 (aa 1-96) or GST-ELK1 (aa 307-428). GST-fusion proteins were purchased from Stratagene (La Jolla, Calif.).
(§2) Ten μL of glutathione-agarose beads were also added to the mixture. Reaction products were then separated by SDS-PAGE on a denaturing 10% polyacrylamide gel. Gels were dried and subsequently exposed to X-ray films (Kodak).
The ability of D-TAT, inventive D-TAT-IB1(s) and inventive L-TAT-IB1 (s) peptides (0-250 μM dosage study) to inhibit GST-Jun (aa 1-73) phosphorylation by recombinant JNK1, JNK2, and JNK3 by were analyzed as described above. Overall, D-TAT-IB1(s) peptide decreased JNK-mediated phosphorylation of c-Jun, but at levels approximately 10-20 fold less efficiently than L-TAT-IB1(s).

JNK3 = biological target: T1, JNK3 (Homo sapiens, UniProt P53779); assay: Solid phase kinase assay: JNK3 phosphorylation of Elk1; type: biochemical; settings: dose response 0-25 μM, GST-ELK1 (aa 307-428)
T1 construct: host or cells: rabbit reticulocyte lysate, in vitro transcription/translation
Description: as §1, §2

βTC-3 cells = assay: Inhibition of IL-1β induced pancreatic β-cell death by TAT-IB peptides; type: cell-based
Description: We investigated the effects of the inventive L-TAT-IB(s) peptides on the promotion of β-cell apoptosis elicited by IL-1. PTC-3 cell cultures were incubated for 30 minutes with 1 μM of inventive L-TAT-IB1(s) peptides followed by 10 ng/mL of IL-1. A second addition of peptide (1 μM) was performed 24 hours later. Apoptotic cells were counted after two days of incubation with IL-1β using propidium iodide (red stained cell are dead cells) and Hoechst 33342 (blue stained cell are cells with intact plasma membrane) nuclear staining.
Long term inhibition of IL-1 induced cells death was examined by treating βTC-3 cells as described above, except that incubation of the cells with the peptides and IL-1β was sustained for 12 days. Additional peptides (1 μM) were added each day and additional IL-1β (10 ng/mL) was added every 2 days. […] Taken together, these experiments provide evidence that inventive TAT-IB(s) peptides are biologically active molecules able to prevent the effects of JNK signaling on cell fate.
Inhibition of IL-1β induced pancreatic β-cell death by the inventive D-TAT-IB1(s) peptide was analyzed. βTC-3 cells were incubated as described above for 30 minutes with one single addition of the indicated peptides (1, μM), then IL-1 (10 ng/ml) was added.
Apoptotic cells were then counted after two days of incubation with IL-1β by use of Propidium Iodide and Hoechst 33342 nuclear staining. A minimum of 1,000 cells were counted for each experiment. Standard Error of the Means (SEM) are indicated, n=5.
Long term inhibition of IL-1P induced cell-death by the D-TAT-IB1 peptide was also analyzed. βTC-3 cells were incubated as above for 30 minutes with one single addition of the indicated peptides (1 μM), then IL-1β (10 ng/ml) was added, followed by addition of the cytokine every two days. Apoptotic cells were then counted after 15 days of incubation with IL-1 by use of propidium iodide and Hoechst 33342 nuclear staining. […] A minimum of 1.000 cells were counted for each experiment.

βTC-3 cell cultures = assay: Cellular import of fluorescein-labeled TAT and TAT-IB1(s) peptides; type: cell-based
Description: The ability of the L- and D-enantiomeric forms of TAT and inventive TAT-IB1(s) peptides (“TAT-IB peptides”) to enter cells was evaluated. L-TAT, D-TAT, inventive L-TAT-IB1(s), and inventive D-TAT-IB1(s) peptides [SEQ ID NOs: 5, 6, 9 and 12, respectively] were labeled by N-terminal addition of a glycine residue conjugated to fluorescein. Labeled peptides (1 μM) were added to βTC-3 cell cultures, which were maintained as described in Example 3. At predetermined times cells were washed with PBS and fixed for five minutes in ice-cold methanol-acetone (1:1) before being examined under a fluorescence microscope. Fluorescein-labeled BSA (1 μM, 12 moles/mole BSA) was used as a control.

gerbil = settings: in vivo; cited from earlier work
[4] = tested on: primary embryonic cultures and differentiated PC12 cells; settings: dosages that inhibit activation of JNKs; cited from earlier work

T1 sequence (P53779 whole entry, species assumed, the tested form may be a part): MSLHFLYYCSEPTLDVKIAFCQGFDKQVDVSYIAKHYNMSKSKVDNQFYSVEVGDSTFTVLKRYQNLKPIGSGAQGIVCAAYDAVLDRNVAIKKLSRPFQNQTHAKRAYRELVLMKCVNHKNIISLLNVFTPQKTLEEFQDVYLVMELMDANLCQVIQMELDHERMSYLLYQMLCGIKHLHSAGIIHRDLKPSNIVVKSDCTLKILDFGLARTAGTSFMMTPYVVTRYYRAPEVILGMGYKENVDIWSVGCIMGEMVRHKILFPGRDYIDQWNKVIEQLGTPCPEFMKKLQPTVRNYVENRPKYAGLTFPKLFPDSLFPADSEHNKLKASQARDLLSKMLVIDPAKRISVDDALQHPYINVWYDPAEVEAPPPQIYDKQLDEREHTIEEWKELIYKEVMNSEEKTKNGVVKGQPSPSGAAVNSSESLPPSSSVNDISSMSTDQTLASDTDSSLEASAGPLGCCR

PGTGCGDTYRPKRPTTLNLFPQVPRSQDT (PGTGCGDTYRPKRPTTLNLFPQVPRSQDT) [IB1]
efficiency in binding JNK relative to c-Jun or ATF2 (JNK): approximately 100 fold

H-GRKKRRQRRRPPRPKRPTTLNLFPQVPRSQD-OH [L-TAT-IB1(s)]
prevention of irradiation induced apoptosis (WiDr cells): able to prevent irradiation induced apoptosis
formation of the AP-1 DNA binding complex (AP-1 DNA binding complex): decrease the formation of the AP-1 DNA binding complex in the presence of TNF-α

TAT-IB(s): enantiomer not worded; the examples concerned name L-TAT-IB1(s) (SEQ ID NO: 9) as the tested peptide (GRKKRRQRRRPPRPKRPTTLNLFPQVPRSQD)
prevention of phosphorylation of c-Jun by activated JNKs [1]: efficiently prevented phosphorylation of c-Jun by activated JNKs
activation of c-Jun following MKK4 and MKK7 mediated activation of JNK (luciferase) ([2]; 1 μM peptide, luciferase measured 16 hours later): blocked activation of c-Jun following MKK4 and MKK7 mediated activation of JNK
activation of c-Jun in cells transfected with JNK3 ([2]; HeLa cells transfected with JNK3, 1 μM peptide): inhibited JNK2 mediated activation of c-Jun
inhibition of JNK family phosphorylation of target transcription factors, overall [3]: superior effects in inhibiting JNK family phosphorylation of their target transcription factors
peptide dose giving nearly complete inhibition of c-Jun, ATF2 and Elk1 phosphorylation by JNKs ([3]; dose response 0-25 μM, doses as low as): 2.5 µM
inhibition of JNK3 phosphorylation of Elk1 (JNK3): absence of TAT-IB(s) inhibition of JNK3 phosphorylation of Elk1
inhibition of IL-1-induced apoptosis (βTC-3 cells; 1 μM peptide, second addition at 24 hours, IL-1β 10 ng/mL for two days): inhibited IL-1-induced apoptosis of βTC-3 cells
long term protection against IL-1 induced apoptosis (βTC-3 cells; 12 days, peptide 1 μM added each day, IL-1β every 2 days): confers strong protection against apoptosis

NH2-GRKKRRQRRR-COOH (H-GRKKRRQRRR-OH) [L-TAT]
entry of fluorescein labeled peptide into cells (βTC-3 cell cultures; 1 μM labeled peptide added to culture medium, fluorescence microscope): efficiently and rapidly (less than five minutes) entered cells

NH2-RRRQRRKKRG-COOH (D-amino acids) [D-TAT]
stability inside the cells (βTC-3 cell cultures): extremely stable inside the cells

N#CC(c1ccnc(NCCc2cccnc2)n1)c1nc2ccccc2s1 (centres unmarked) [AS601245]
protection against delayed loss of hippocampal CA1 neurons (gerbil): significant protection against the delayed loss of hippocampal CA1 neurons

TDQSRPVQPFLNLTTPRKPRYTDPPRRRQRRKKRG (TDQSRPVQPFLNLTTPRKPRYTDPPRRRQRRKKRG) [D-TAT-IB1, reference compound]
decrease of IL-1 induced apoptosis (βTC-3 cells; one single addition of peptide 1 μM, two days of IL-1β): decreased IL-1 induced apoptosis to a similar extent as L-TAT-IB peptides

IPSPSVEEPHKHRPTTLRLTTLGAQDS (IPSPSVEEPHKHRPTTLRLTTLGAQDS) [IB2]
efficiency in binding JNK relative to c-Jun or ATF2 (JNK): approximately 100 fold

CCSCc1ccc2c(c1)c1c3c(c4c5cc(CSCC)ccc5n5c4c1n2[C@H]1C[C@](O)(C(=O)OC)[C@]5(C)O1)CNC3=O [CEP-1347]
neuronal survival [4]: promotes neuronal survival at dosages that inhibit activation of the c-Jun amino-terminal kinases (JNKs)
